What was measured:
Test in all cases: biochemical
Design in all cases: CEREP panel radioligand binding displacement, % inhibition of control specific binding by 10 uM 2BAct
Y1 (h) = biological target: T1, Y1 (h) (Homo sapiens, UniProt P25929); conditions: Type=Agonist radioligand; read-out: % inhibition of Control specific binding
T1 construct: gene NPY1R
Description: (§1) Supplementary file elife-42940-supp1.xlsx: Supplementary file 1. (A) Binding of 2BAct at 10 μM to the CEREP panel of receptors/enzymes/ion channels. Compound binding was calculated as a % inhibition of the binding of a radioactively labeled ligand specific for each target. Results showing inhibition or stimulation higher than 50% are considered to represent significant effects of the test compound. (B) Pharmacokinetic data from 2BAct dosing in mice. (C) GO Biological Processes identified by enrichment analysis of RNA-seq data. (D) List of genes used for enrichment analysis of scRNA-seq data.

M5 (h) = biological target: T2, M5 (h) (Homo sapiens, UniProt P08912); conditions: Type=Antagonist radioligand; read-out: % inhibition of Control specific binding
T2 construct: gene CHRM5
Description: as §1

B2 (h) = biological target: T3, B2 (h) (Homo sapiens, UniProt P30411); conditions: Type=Agonist radioligand; read-out: % inhibition of Control specific binding
T3 construct: gene BDKRB2
Description: as §1

NK2 (h) = biological target: T4, NK2 (h) (Homo sapiens, UniProt P21452); conditions: Type=Agonist radioligand; read-out: % inhibition of Control specific binding
T4 construct: gene TACR2
Description: as §1

M3 (h) = biological target: T5, M3 (h) (Homo sapiens, UniProt P20309); conditions: Type=Antagonist radioligand; read-out: % inhibition of Control specific binding
T5 construct: gene CHRM3
Description: as §1

motilin (h) = biological target: T6, motilin (h) (Homo sapiens, UniProt O43193); conditions: Type=Agonist radioligand; read-out: % inhibition of Control specific binding
T6 construct: gene MLNR
Description: as §1

AT1 (h) = biological target: T7, AT1 (h) (Homo sapiens, UniProt P30556); conditions: Type=Antagonist radioligand; read-out: % inhibition of Control specific binding
T7 construct: gene AGTR1
Description: as §1

a1B (h) = biological target: T8, a1B (h) (Homo sapiens, UniProt P35368); conditions: Type=Antagonist radioligand; read-out: % inhibition of Control specific binding
T8 construct: gene ADRA1B
Description: as §1

M2 (h) = biological target: T9, M2 (h) (Homo sapiens, UniProt P08172); conditions: Type=Antagonist radioligand; read-out: % inhibition of Control specific binding
T9 construct: gene CHRM2
Description: as §1

M4 (h) = biological target: T10, M4 (h) (Homo sapiens, UniProt P08173); conditions: Type=Antagonist radioligand; read-out: % inhibition of Control specific binding
T10 construct: gene CHRM4
Description: as §1

M1 (h) = biological target: T11, M1 (h) (Homo sapiens, UniProt P11229); conditions: Type=Antagonist radioligand; read-out: % inhibition of Control specific binding
T11 construct: gene CHRM1
Description: as §1

[1] = biological target: T12, norepinephrine transporter (h) (Homo sapiens, UniProt P23975); conditions: Type=Antagonist radioligand; read-out: % inhibition of Control specific binding
T12 construct: gene SLC6A2
Description: as §1

a1A (h) = biological target: T13, a1A (h) (Homo sapiens, UniProt P35348); conditions: Type=Antagonist radioligand; read-out: % inhibition of Control specific binding
T13 construct: gene ADRA1A
Description: as §1

GABA-A1 (h) (a1, b2, g2) = biological target: T14, GABA-A1 (h) (a1, b2, g2) (Homo sapiens, UniProt P14867+P18507+P47870); conditions: Type=Agonist radioligand; read-out: % inhibition of Control specific binding
T14 construct: gene GABRA1; a1, b2, g2
Description: as §1

A1 (h) = biological target: T15, A1 (h) (Homo sapiens, UniProt P30542); conditions: Type=Antagonist radioligand; read-out: % inhibition of Control specific binding
T15 construct: gene ADORA1
Description: as §1

A2b (h) = biological target: T16, A2b (h) (Homo sapiens, UniProt P29275); conditions: Type=Antagonist radioligand; read-out: % inhibition of Control specific binding
T16 construct: gene ADORA2B
Description: as §1

MAO-A = biological target: T17, MAO-A (Rattus norvegicus, UniProt P21396); conditions: Type=Antagonist radioligand; read-out: % inhibition of Control specific binding
T17 construct: gene Maoa
Description: as §1

A3 (h) = biological target: T18, A3 (h) (Homo sapiens, UniProt P0DMS8); conditions: Type=Agonist radioligand; read-out: % inhibition of Control specific binding
T18 construct: gene ADORA3
Description: as §1

b1 (h) = biological target: T19, b1 (h) (Homo sapiens, UniProt P08588); conditions: Type=Agonist radioligand; read-out: % inhibition of Control specific binding
T19 construct: gene ADRB1
Description: as §1

H1 (h) = biological target: T20, H1 (h) (Homo sapiens, UniProt P35367); conditions: Type=Antagonist radioligand; read-out: % inhibition of Control specific binding
T20 construct: gene HRH1
Description: as §1

5-HT2A (h) = biological target: T21, 5-HT2A (h) (Homo sapiens, UniProt P28223); conditions: Type=Antagonist radioligand; read-out: % inhibition of Control specific binding
T21 construct: gene HTR2A
Description: as §1

T17 sequence (P21396 whole entry): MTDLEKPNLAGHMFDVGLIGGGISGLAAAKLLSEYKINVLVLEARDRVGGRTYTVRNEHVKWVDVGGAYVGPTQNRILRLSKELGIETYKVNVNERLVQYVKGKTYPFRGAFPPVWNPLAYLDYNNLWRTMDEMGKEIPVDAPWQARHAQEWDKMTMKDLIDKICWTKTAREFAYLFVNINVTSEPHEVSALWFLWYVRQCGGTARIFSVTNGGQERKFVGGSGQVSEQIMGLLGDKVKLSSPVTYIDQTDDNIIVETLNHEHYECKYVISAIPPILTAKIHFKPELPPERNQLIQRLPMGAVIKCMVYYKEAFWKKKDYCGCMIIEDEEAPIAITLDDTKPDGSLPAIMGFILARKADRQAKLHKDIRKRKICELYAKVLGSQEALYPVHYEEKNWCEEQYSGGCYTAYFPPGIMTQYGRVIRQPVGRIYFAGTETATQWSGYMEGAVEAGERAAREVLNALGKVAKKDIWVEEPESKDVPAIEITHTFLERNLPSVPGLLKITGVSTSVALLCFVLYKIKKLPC
T6 sequence (O43193 whole entry): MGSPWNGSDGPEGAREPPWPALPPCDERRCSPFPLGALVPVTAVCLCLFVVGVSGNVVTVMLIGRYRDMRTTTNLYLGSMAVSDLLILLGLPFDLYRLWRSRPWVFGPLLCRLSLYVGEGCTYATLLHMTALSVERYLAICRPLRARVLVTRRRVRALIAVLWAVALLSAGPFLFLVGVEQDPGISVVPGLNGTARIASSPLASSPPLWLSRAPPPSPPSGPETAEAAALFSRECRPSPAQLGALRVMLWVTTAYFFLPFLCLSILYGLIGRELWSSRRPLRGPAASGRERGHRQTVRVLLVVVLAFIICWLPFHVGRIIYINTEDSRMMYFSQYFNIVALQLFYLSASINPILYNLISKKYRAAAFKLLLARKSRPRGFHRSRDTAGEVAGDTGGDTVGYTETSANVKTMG
T19 sequence (P08588 whole entry): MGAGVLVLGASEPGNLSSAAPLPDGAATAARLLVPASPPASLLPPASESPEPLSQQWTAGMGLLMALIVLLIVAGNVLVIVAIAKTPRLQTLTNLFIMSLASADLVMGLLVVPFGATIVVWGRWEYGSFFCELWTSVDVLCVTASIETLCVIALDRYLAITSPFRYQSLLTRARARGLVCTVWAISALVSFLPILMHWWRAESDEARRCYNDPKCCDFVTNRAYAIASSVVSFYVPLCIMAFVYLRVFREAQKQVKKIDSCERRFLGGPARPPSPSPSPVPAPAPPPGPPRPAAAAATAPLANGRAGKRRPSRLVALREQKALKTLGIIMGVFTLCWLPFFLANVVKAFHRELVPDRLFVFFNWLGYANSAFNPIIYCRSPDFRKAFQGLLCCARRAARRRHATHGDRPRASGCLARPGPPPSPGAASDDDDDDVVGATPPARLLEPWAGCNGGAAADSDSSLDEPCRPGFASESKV
T15 sequence (P30542 whole entry): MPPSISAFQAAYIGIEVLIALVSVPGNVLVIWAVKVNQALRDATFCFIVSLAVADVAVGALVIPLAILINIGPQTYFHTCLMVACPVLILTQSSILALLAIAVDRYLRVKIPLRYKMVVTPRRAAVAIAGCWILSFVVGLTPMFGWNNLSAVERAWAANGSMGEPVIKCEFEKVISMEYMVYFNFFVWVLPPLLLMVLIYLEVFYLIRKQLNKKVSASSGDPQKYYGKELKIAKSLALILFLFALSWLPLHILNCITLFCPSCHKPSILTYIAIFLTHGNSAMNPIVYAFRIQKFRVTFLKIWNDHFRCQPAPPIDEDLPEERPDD
T11 sequence (P11229 whole entry): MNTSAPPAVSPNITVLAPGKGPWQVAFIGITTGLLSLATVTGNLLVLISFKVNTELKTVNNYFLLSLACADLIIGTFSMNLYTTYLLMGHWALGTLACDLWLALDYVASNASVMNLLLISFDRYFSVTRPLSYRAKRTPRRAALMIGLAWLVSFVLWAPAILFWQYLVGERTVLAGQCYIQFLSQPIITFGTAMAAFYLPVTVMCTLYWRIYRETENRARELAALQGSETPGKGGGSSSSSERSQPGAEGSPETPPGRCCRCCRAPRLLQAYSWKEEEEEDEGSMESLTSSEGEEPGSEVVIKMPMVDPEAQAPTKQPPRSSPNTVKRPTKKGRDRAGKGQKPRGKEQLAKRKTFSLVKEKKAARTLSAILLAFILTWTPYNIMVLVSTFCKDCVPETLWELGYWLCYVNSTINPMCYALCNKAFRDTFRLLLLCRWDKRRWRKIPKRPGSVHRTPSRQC
T10 sequence (P08173 whole entry): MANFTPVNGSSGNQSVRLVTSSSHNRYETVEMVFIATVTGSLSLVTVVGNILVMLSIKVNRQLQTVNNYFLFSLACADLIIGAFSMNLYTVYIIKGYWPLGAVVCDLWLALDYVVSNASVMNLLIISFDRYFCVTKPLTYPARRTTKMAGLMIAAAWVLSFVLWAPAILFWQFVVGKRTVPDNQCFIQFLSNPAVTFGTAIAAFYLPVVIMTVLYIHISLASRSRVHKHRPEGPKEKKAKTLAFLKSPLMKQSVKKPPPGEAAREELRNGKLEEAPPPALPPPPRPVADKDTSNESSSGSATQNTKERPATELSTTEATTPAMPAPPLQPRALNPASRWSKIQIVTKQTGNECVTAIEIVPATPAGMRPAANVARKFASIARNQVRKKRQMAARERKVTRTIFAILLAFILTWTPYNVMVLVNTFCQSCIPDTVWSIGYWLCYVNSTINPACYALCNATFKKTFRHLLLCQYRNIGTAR
T3 sequence (P30411 whole entry): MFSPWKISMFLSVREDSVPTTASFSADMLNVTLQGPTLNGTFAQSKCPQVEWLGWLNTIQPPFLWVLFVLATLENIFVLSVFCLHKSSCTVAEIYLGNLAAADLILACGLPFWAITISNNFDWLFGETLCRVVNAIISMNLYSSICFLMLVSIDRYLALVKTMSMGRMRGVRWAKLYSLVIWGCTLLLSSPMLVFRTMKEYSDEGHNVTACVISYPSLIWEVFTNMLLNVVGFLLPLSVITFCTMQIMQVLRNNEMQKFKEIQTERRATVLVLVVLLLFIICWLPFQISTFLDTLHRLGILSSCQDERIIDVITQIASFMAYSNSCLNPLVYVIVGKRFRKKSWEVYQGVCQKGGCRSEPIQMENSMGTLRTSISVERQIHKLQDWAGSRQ
T7 sequence (P30556 whole entry): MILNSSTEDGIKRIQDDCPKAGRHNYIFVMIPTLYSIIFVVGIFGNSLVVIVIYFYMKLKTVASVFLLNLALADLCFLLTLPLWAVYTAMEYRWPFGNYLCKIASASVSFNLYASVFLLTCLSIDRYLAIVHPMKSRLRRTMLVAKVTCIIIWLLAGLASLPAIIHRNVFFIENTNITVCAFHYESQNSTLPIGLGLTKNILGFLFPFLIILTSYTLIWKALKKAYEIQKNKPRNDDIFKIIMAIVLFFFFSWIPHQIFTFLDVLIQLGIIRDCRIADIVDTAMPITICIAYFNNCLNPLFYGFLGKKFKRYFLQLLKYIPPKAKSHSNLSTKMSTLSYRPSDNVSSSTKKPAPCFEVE
T8 sequence (P35368 whole entry): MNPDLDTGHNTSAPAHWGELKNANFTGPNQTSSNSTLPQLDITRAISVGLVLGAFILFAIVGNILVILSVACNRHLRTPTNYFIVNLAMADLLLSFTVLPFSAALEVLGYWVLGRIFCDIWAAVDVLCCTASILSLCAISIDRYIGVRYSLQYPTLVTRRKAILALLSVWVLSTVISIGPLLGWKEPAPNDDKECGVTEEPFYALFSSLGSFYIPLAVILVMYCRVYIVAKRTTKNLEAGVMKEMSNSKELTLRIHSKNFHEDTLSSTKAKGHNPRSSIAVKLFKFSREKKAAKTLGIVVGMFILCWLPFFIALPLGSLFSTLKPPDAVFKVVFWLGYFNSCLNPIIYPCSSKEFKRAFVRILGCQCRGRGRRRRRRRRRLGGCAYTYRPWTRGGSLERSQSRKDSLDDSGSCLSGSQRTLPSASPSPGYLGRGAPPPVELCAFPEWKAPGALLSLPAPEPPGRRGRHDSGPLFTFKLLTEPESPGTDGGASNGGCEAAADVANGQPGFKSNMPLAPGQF
T18 sequence (P0DMS8 whole entry): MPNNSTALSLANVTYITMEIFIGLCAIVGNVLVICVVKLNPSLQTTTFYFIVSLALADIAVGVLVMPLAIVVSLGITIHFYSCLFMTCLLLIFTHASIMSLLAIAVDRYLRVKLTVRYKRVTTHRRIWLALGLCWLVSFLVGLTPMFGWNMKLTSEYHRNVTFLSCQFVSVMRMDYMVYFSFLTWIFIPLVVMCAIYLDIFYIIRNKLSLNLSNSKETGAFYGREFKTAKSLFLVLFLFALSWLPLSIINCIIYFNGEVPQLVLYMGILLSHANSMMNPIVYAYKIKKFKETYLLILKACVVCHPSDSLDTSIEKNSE
T2 sequence (P08912 whole entry): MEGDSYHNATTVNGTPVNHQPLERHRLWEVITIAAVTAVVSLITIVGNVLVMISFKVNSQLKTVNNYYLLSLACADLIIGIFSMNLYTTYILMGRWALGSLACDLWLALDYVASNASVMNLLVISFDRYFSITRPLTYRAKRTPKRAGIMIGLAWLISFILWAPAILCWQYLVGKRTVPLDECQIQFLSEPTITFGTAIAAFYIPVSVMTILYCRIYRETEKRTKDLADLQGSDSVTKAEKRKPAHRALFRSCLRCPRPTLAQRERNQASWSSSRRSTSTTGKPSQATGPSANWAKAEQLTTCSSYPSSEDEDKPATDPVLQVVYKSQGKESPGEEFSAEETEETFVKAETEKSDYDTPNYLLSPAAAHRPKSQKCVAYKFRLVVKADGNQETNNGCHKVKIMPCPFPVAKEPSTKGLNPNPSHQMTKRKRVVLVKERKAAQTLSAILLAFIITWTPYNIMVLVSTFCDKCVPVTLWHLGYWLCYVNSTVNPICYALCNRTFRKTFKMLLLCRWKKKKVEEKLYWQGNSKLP

For `O=C(COc1ccc(Cl)c(F)c1)NC12CC(NC(=O)c3cnc(C(F)F)cn3)(C1)C2` [2BAct], the inhibition at 10 µM (Y1 (h)) was -17.4%, the inhibition at 10 µM (M5 (h)) was 11.8% and the inhibition at 10 µM (B2 (h)) was 8.7%. The inhibition at 10 µM (NK2 (h)) was 12%, the inhibition at 10 µM (M3 (h)) was -0.9% and the inhibition at 10 µM (motilin (h)) was -10.8%. The inhibition at 10 µM (AT1 (h)) was 13.2%, the inhibition at 10 µM (a1B (h)) was -14.2% and the inhibition at 10 µM (M2 (h)) was 4.2%. The inhibition at 10 µM (M4 (h)) was 11%, the inhibition at 10 µM (M1 (h)) was 2.6% and the inhibition at 10 µM [1] was 61%. The inhibition at 10 µM (a1A (h)) was 6.6%, the inhibition at 10 µM (GABA-A1 (h) (a1, b2, g2)) was -19.5% and the inhibition at 10 µM (A1 (h)) was 2.1%. The inhibition at 10 µM (A2b (h)) was 50.1%, the inhibition at 10 µM (MAO-A) was 10.2% and the inhibition at 10 µM (A3 (h)) was 20.6%. For the same compound, the inhibition at 10 µM (b1 (h)) was 7.8%, the inhibition at 10 µM (H1 (h)) was 0.2% and the inhibition at 10 µM (5-HT2A (h)) was 10.8%.
